Experimental data: patent US20260125346A1, “Isoquinolinone Derivatives and 4H-Quinolizinone Derivatives and Pharmaceutical Compositions Thereof for the Treatment of Disease” (BeOne Medicines I GmbH, priority 2023, published 2026)
pIC50: −log10 of the molar value.

Key:
Format in all cases: cell-based
[1] = system: PI3Kα H1047R mutated cell line T-47D; assay: Phospho-AKT (Ser473) Inhibition Assay (HTRF), T-47D; details: for pIC50: Homo sapiens, T47D, T-47D, 1 hour treatment, read-out: p-AKT Inhibition assay (S473) IC50 T-47D; for Selectivity: SK-BR-3/T-47D (p-AKT): p-AKT (S473) IC50 ratio
Experimental: (§1) Cell Culture Maintenance. The T-47D (ATCC, HTB-133) cell line was obtained from the American Type Culture Collection. Cells were maintained in RPMI1640 medium (Gibco, REF #22400105) supplemented with 10% Fetal Bovine Serum (Gibco, REF #10091148). Cultures were maintained in a humidified incubator at 37° C. under 5% CO2/95% air.
(§2) Phospho-AKT Inhibition Assay. HTRF Phospho-AKT (Ser473) detection kit (Cisbio, REF #64AKSPEH) was used in phosphor-AKT inhibition assay. For compound screening, PI3Kα H1047R mutated cell line T-47D and WT cell line SK-BR-3 cells were seeded at a density of 3×10^4 cells per well in 96 well plate (Costar, REF #3599) in 95 μL of assay medium (MEM medium (Gibco, REF #12561-056) with 1×NEAA (Gibco, REF #11140-050), 1 mM sodium pyruvate (Gibco, REF #11360-070), and 1 g/ml human insulin (Topscience, REF #T8221)), overnight. Compounds dissolved in 10 mM stock solutions in DMSO were serially diluted 1:3 in DMSO to generate an 11-point dilution series and plated using an INTEGRA ASSIST PLUS pipetting robot. A 20× intermediate compound dilution plate in RPMI1640 medium (200 M starting compound concentration in 2% DMSO) was then prepared. Five μL of intermediate serially diluted compounds were added to the cell plate to final concentrations ranging from […] to 0.1 nM in 0.1% DMSO. 0.1% DMSO alone was used to establish the maximum signal and GDC0077 at final concentration of 10 μM was used as a reference compound for minimum signal. After 1 hour treatment, removed medium and added 50 μL of supplemented lysis buffer (1×) immediately. Incubated for at least 30 minutes at room temperature under shaking. Transferred 16 μL of cell lysate from the 96-well cell-culture plate to a 384-white detection plate (PerkinElmer, Optiplate 384, 6007299). Added 4 μL of premixed antibody solutions prepared in the detection buffer. Incubated 4 hours at room temperature in dark. The plates were read on PHERAstar FSX Microplate reader (BMG LABTECH, Inc.) using standard HTRF settings.
(§3) Relative IC50 values were determined using luminescence units by calculating percent inhibition with respect to the in-plate “MIN” (GDC0077 reference control) and “MAX” (DMSO) controls. The data were analyzed using a 4-parameter nonlinear logistic equation (four-parameter logistic concentration-response curve): Y=bottom+[(top−bottom)/1+(X/IC50) slope] • where Y=% inhibition, X=concentration of inhibitor, bottom=minimum value of y attained by curve-fit, top=maximum value of y attained by curve-fit and slope=steepness of curve at the IC50.

WT cell line SK-BR-3 [2] = assay: Phospho-AKT (Ser473) Inhibition Assay (HTRF), SK-BR-3; details: Homo sapiens; SK-BR-3, 1 hour treatment; read-out: p-AKT Inhibition assay (S473) IC50 SK-BR-3
Experimental: (§4) The SK-BR-3 (ATCC, HTB-30) cell line was obtained from the American Type Culture Collection. Cells were maintained in McCoy' 5A medium (Gibco, REF #16600108) supplemented with 10% Fetal Bovine Serum. Cultures were maintained in a humidified incubator at 37° C. under 5% CO2/95% air.
as §2, §3

[3] = system: PI3Kα H1047R mutated cell line T-47D cells; assay: Cell Proliferation Assay (CellTiter-Glo), T-47D; details: for pIC50: Homo sapiens, T47D, 72 h, T-47D, 3 days treatment; for Selectivity: SK-BR-3/T-47D (cell proliferation): cell proliferation IC50 ratio
Experimental: as §1
(§5) Cell Proliferation Assay. PI3Kα H1047R mutated cell line T-47D cells and WT cell line SK-BR-3 were seeded at a density of 3×10^3 cells per well in 96 well plate (Xinyou Biotechnology, 062096) in 95 μL of culture medium, overnight. Compounds dissolved in 10 mM stock solutions in DMSO were serially diluted 1:3 in DMSO to generate a 9-point dilution series and plated using an INTEGRA ASSIST Plus pipetting robot. A 20× intermediate compound dilution plate in RPMI1640 medium (200 M starting compound concentration in 2% DMSO) was then prepared. Five μL of intermediate serially diluted compounds were added to the cell plate to final concentrations ranging from […] to 1 nM in 0.1% DMSO. 0.1% DMSO alone was used to establish the maximum signal and medium without cells was for minimum signal. After 3 days treatment, equilibrated the plate and its contents at room temperature for approximately 30 minutes. Added 30 μL CellTiter-Glo® Reagent (Promega, REF #G7571) to each well. Then mixed contents for 5 min on plate shaker to induce cell lysis. Incubated at room temperature for 10 minutes to stabilize luminescent signal. The plates were read on PHERAstar FSX Microplate reader using standard luminescence settings.
(§6) Relative IC50 values were determined using luminescence units by calculating percent inhibition with respect to the in-plate “MIN” (medium only) and “MAX” (0.1% DMSO) controls. The data were analyzed using a 4-parameter nonlinear logistic equation (four-parameter logistic concentration-response curve): Y=bottom+[(top−bottom)/1+(X/IC50) slope] • where Y=% inhibition, X=concentration of inhibitor, bottom=minimum value of y attained by curve-fit, top=maximum value of y attained by curve-fit and slope=steepness of curve at the IC50.

WT cell line SK-BR-3 [4] = assay: Cell Proliferation Assay (CellTiter-Glo), SK-BR-3; details: Homo sapiens, 72 h; SK-BR-3, 3 days treatment
Experimental: as §4, §5, §6

SMILES | pIC50 [1] | pIC50 (WT cell line SK-BR-3 [2]) | pIC50 [3] | pIC50 (WT cell line SK-BR-3 [4]) | Selectivity: SK-BR-3/T-47D (p-AKT) [1] | Selectivity: SK-BR-3/T-47D (cell proliferation) [3]
Cc1cc([C@@H](C)Nc2ccccc2C(=O)O)c2cc(-c3ccc(F)cc3)n(CC#N)c(=O)c2c1 [Example 64, (R)-2-((1-(2-(cyanomethyl)-3-(4-fluorophenyl)-7-methyl-1-oxo-1,2-dihydroisoquinolin-5-yl)ethyl)amino)benzoic acid] | 7.49 | < 5.00 | 7.15 | < 5.00 | >308 | >143
Cc1cc(C(C)Nc2ccccc2C(=O)O)c2cc(-c3ccccc3C)n(C)c(=O)c2c1 (stereo not drawn) [Example 2, 2-((1-(2,7-dimethyl-1-oxo-3-(o-tolyl)-1,2-dihydroisoquinolin-5-yl)ethyl)amino)benzoic acid] | 7.18 | 5.55 | 5.91 | < 5.00 | 43.0 | >8.2
Cc1cc(C(C)Nc2ccccc2C(=O)O)c2cc(-c3ccccc3F)n(C)c(=O)c2c1 (stereo not drawn) [Example 6, 2-((1-(3-(2-fluorophenyl)-2,7-dimethyl-1-oxo-1,2-dihydroisoquinolin-5-yl)ethyl)amino)benzoic acid] | 7.20 | 5.49 | 6.49 | < 5.00 | 51.5 | >31
Cc1cc(C(C)Nc2ccccc2C(=O)O)c2cc(-c3ccc4c(c3)CN(C)C4=O)n(C)c(=O)c2c1 (stereo not drawn) [Example 70, 2-((1-(2,7-dimethyl-3-(2-methyl-1-oxoisoindolin-5-yl)-1-oxo-1,2-dihydroisoquinolin-5-yl)ethyl)amino)benzoic acid] | 5.96 | < 5.00 | 6.61 | < 5.00 | >9.11 | >41
Cc1cc(C(C)Nc2ccccc2C(=O)O)c2cc(-c3ccc4nc(C)sc4c3)n(C)c(=O)c2c1 (stereo not drawn) [Example 18, 2-((1-(2,7-dimethyl-3-(2-methylbenzo[d]thiazol-6-yl)-1-oxo-1,2-dihydroisoquinolin-5-yl)ethyl)amino)benzoic acid] | 7.07 | 5.63 | 6.65 | < 5.00 | 27.3 | >45
Cc1cc(C(C)Nc2ccccc2C(=O)O)c2cc(-c3cccc(F)c3F)n(C)c(=O)c2c1 (stereo not drawn) [Example 12, 2-((1-(3-(2,3-difluorophenyl)-2,7-dimethyl-1-oxo-1,2-dihydroisoquinolin-5-yl)ethyl)amino)benzoic acid] | 7.26 | 5.67 | 6.63 | < 5.00 | 39.0 | >42
Cc1cc(C(C)Nc2ccccc2C(=O)O)c2cc(-c3ccc(F)cc3)n(C3CCOC3)c(=O)c2c1 (stereo not drawn) [Example 69, 2-((1-(3-(4-fluorophenyl)-7-methyl-1-oxo-2-(tetrahydrofuran-3-yl)-1,2-dihydroisoquinolin-5-yl)ethyl)amino)benzoic acid] | 6.99 | < 5.00 | 5.77 | < 5.00 | >97 | >5.9

Further lines, with some results ahead:

pIC50 [1] | pIC50 (WT cell line SK-BR-3 [2]) | pIC50 [3] | pIC50 (WT cell line SK-BR-3 [4]) | SMILES | Selectivity: SK-BR-3/T-47D (p-AKT) [1] | Selectivity: SK-BR-3/T-47D (cell proliferation) [3]
5.85 | < 5.00 | 6.47 | < 5.00 | Cc1cc(C(C)Nc2ccccc2C(=O)O)c2cc(-c3cncnc3)n(C)c(=O)c2c1 (stereo not drawn) [Example 61, 2-((1-(2,7-dimethyl-1-oxo-3-(pyrimidin-5-yl)-1,2-dihydroisoquinolin-5-yl)ethyl)amino)benzoic acid] | >7.15 | >29
6.42 | < 5.00 | 6.77 | < 5.00 | Cc1cc(C(C)Nc2ccccc2C(=O)O)c2cc(-c3cccnc3)n(C)c(=O)c2c1 (stereo not drawn) [Example 37, 2-((1-(2,7-dimethyl-1-oxo-3-(pyridin-3-yl)-1,2-dihydroisoquinolin-5-yl)ethyl)amino)benzoic acid] | >26 | >58.3
5.80 | < 5.00 | 6.23 | < 5.00 | Cc1cc(C(C)Nc2ccccc2C(=O)O)c2cc(-c3cnn(-c4ccc(C(N)=O)cn4)c3)n(C)c(=O)c2c1 (stereo not drawn) [Example 16, 2-((1-(3-(1-(5-carbamoylpyridin-2-yl)-1H-pyrazol-4-yl)-2,7-dimethyl-1-oxo-1,2-dihydroisoquinolin-5-yl)ethyl)amino)benzoic acid] | >6.3 | >17
6.66 | 5.08 | 6.95 | < 5.00 | COc1ccc(-c2cc3c(C(C)Nc4ccccc4C(=O)O)cc(C)cc3c(=O)n2C)cn1 (stereo not drawn) [Example 15, 2-((1-(3-(6-methoxypyridin-3-yl)-2,7-dimethyl-1-oxo-1,2-dihydroisoquinolin-5-yl)ethyl)amino)benzoic acid] | 38.5 | >89
7.66 | 5.60 | 6.75 | < 5.00 | Cc1cc([C@@H](C)Nc2ccccc2C(=O)O)c2cc(-c3ccccc3)n(C)c(=O)c2c1 [Example 30, (R)-2-((1-(2,7-dimethyl-1-oxo-3-phenyl-1,2-dihydroisoquinolin-5-yl)ethyl)amino)benzoic acid] | 113.7 | >57
6.78 | 5.36 | 6.85 | < 5.00 | Cc1cc(C(C)Nc2ccccc2C(=O)O)c2cc(-c3cccc(C#N)c3)n(C)c(=O)c2c1 (stereo not drawn) [Example 3, 2-((1-(3-(3-cyanophenyl)-2,7-dimethyl-1-oxo-1,2-dihydroisoquinolin-5-yl)ethyl)amino)benzoic acid] | 26.0 | >70
7.36 | 5.68 | 7.07 | < 5.00 | Cc1cc(C(C)Nc2ccccc2C(=O)O)c2cc(-c3ccccc3)n(C)c(=O)c2c1 (stereo not drawn) [Example 1, 2-((1-(2,7-dimethyl-1-oxo-3-phenyl-1,2-dihydroisoquinolin-5-yl)ethyl)amino)benzoic acid] | 48.6 | >118
